Results published in patent US12718601B2, “Using machine learning and/or neural networks to validate stem cells and their derivatives (2-D cells and 3-D tissues) for use in cell therapy and tissue engineered products” (The United States of America, as represented by the …, priority 2018, dated 2026).

Key:
Type in all cases: cell-based, human
iRPE [1] = experiment: Electrophysiological measurements (TEP and TER) of iRPE monolayers; details: treated iRPE relative to control
Procedure: Electrical resistance measurements used for prediction of the iRPE monolayers were measured using an EVOM2 and EndOhm chamber (World Precision Instruments, EVOM2 and ENDOHM-12 respectively). Each line was measured for its resistance across 12 wells per treatment, per week. Intracellular transepithelial potential and resistance measurements in response to 1 mM potassium (Sigma Aldrich, P5405-1 KG) and 100 μM ATP (Sigma Aldrich, A9187-500 MG) were done identically to that of previous reports (Miyagishima et al., In Pursuit of Authenticity: Induced Pluripotent Stem Cell-Derived Retinal Pigment Epithelium for Clinical Applications, STEM CELLS Transl. Med. 5, 1562-1574 (2016)). Briefly, RPE monolayer cultures derived from iPSC lines were mounted on a modified “Ussing” chamber as described previously (Maminishkis et al., The P2Y2 Receptor Agonist INS37217 Stimulates RPE Fluid Transport In Vitro and Retinal Reattachment, Rat. Invest. Ophthalmol. Vis. Sci. 43, 3555-3566 (2002); Peterson et al., Extracellular ATP Activates Calcium Signaling, Ion, and Fluid Transport in Retinal Pigment Epithelium, J. Neurosci. 17, 2324-2337 (1997)). […] The signals from intracellular microelectrodes were referenced to the basal bath to measure the basolateral membrane potential (Vb) and the apical membrane potential (Va) was calculated by the equation: […]. […]

iRPE [2] = experiment: Single cell image features from DNN-S segmented QBAM images of drug-treated iRPE; details: for CPI_IntegratedIntensityEdge.K (Intensity 10), Mean / ML_MinIntensity.Mean (Intensity 1), Mean: Healthy-2 iRPE, 3.0 μmol/L Aphidicolin or 30.0 μM HPI4
Procedure: QBAM imaging and live cell segmentation allows for hundreds of cell image features to be measured and tracked non-invasively on individual cells throughout iRPE maturation. Thus, the trained DNN-S was used to segment QBAM images of living iRPE (Healthy-1 and Healthy-2 donors) treated with Aphidicolin, HPI-4, or nothing (control). Previously published cell image features and intensity metrics known to correlate to RPE maturation and health were then assessed for significance. […] Importantly, this technique allows for unprecedented hierarchical granularity to the data; enabling not just whole well “bulk” tissue measurements, but also as a function of field of view or at an individual cell level Clustering of treatments based off of two features known to be important to RPE maturation and health, cell area and mean cell intensity were performed. Cell minimum intensity, a new metric related to iRPE function identified using SML, is described further below.
Following differentiation, iRPE from donors Healthy-1 and Healthy-2 were placed on a 12-well 0.4 μm polycarbonate transwell plate (Corning, 3401) at a seeding density of 500,000 cells/ml in 0.5 ml. Only six of the 12 wells were used to minimize the time spent outside of the incubator while imaging. QBAM imaging and drug treatments started two or one weeks after seeding for Healthy-1 and Healthy-2 iRPE, respectively. For each culture plate, two of the six wells were treated with either 3.0 μmol/L Aphidicolin (Sigma Aldrich, A0781-10 MG), 30.0 μM HPI4 (Hedgehog Pathway Inhibitor 4, Sigma Aldrich, H4541-25 MG), or no additives to the RPEMM culture medium. RPEMM was changed three times a week and imaged on the same day every week immediately after medium change. To prevent the culture plate lid from fogging during imaging, culture medium in wells were replaced with room temperature RPEMM (with drugs if needed) immediately before imaging since room temperature medium minimized condensation. RPEMM without drug was added to a well without any cells in it to capture the bright reference image for QBAM imaging. For each well, a 4×3 grid of overlapping images were captured (10-15% image overlap) for image stitching using a Zeiss AxioImager M2 microscope with a 10× objective. For Healthy-2 and Healthy-1, a total of six plates were prepared, with six wells occupied in each plate, yielding 36 total wells imaged and analyzed. The iRPE from AMD samples were previously reported by Sharma et al (Sharma et al., 2018), and the iRPE from OCA donors were cultured as described above, but were only imaged after they had matured and were fixed with PFA. In total five well replicates of OCA8, six replicates from OCA9, four replicates of OCA26, eight replicates of OCA71, and four replicates of OCA103 were imaged. For AMD data 1 replicate of AMD1 Clone A, 5 replicates of AMD1 Clone B, 1 Replicate of AMD2 Clone A, 5 replicates of AMD2 Clone B, 1 replicate of AMD2 Clone C, 1 replicate of AMD3 Clone A, 5 replicates of AMD3 Clone B, and 1 replicate of AMD3 Clone C were imaged.
No preprocessing was performed on QBAM images before they were processed with the DNN-S. The structure of the DNN-S was the same as that used to segment the fluorescent images, except the input image had three channels instead of one. The three channels were three QBAM images captured of the same field of view, but each QBAM image was captured at a different wavelength (488 nm, 561 nm, and 633 nm).
In order to extract as many cell-level features as possible, multiple widely were leveraged used image libraries for feature extraction that have been integrated into WIPP. While the feature values for the same feature definitions might vary, they provide insights on the amount of variation introduced not only by image acquisition but also by image processing. […]

iRPE [3] = experiment: QBAM imaging of drug-treated iRPE (image absorbance); details: Healthy-1 and Healthy-2 iRPE, 8-week culture, weekly QBAM imaging
Description: iRPE from each healthy donor (Healthy-1, Healthy-2) were imaged to determine if QBAM imaging affected cell maturation and could measure a large range in variation of iRPE pigmentation. This was done using three culture conditions: (1) control iRPE (no treatment), (2) iRPE treated with a known inducer of RPE maturation (Aphidicolin), and (3) iRPE treated with a known inhibitor of RPE maturation (hedgehog pathway inhibitor-4, HPI4).
Following differentiation, iRPE from donors Healthy-1 and Healthy-2 were placed on a 12-well 0.4 μm polycarbonate transwell plate (Corning, 3401) at a seeding density of 500,000 cells/ml in 0.5 ml. Only six of the 12 wells were used to minimize the time spent outside of the incubator while imaging. QBAM imaging and drug treatments started two or one weeks after seeding for Healthy-1 and Healthy-2 iRPE, respectively. For each culture plate, two of the six wells were treated with either 3.0 μmol/L Aphidicolin (Sigma Aldrich, A0781-10 MG), 30.0 μM HPI4 (Hedgehog Pathway Inhibitor 4, Sigma Aldrich, H4541-25 MG), or no additives to the RPEMM culture medium. RPEMM was changed three times a week and imaged on the same day every week immediately after medium change. […] For Healthy-2 and Healthy-1, a total of six plates were prepared, with six wells occupied in each plate, yielding 36 total wells imaged and analyzed. […]

iRPE [4] = experiment: mRNA and protein expression of maturation markers in iRPE; details: Aphidicolin treated iRPE compared with HPI4 treated iRPE
Procedure: Tissue preparation for immunohistochemistry was done by placing wells in 4% (mass/volume) paraformaldehyde (Electron Microscopy Science, 157-4-100) for 20 minutes. Immunohistochemistry blocking solution (IBS) consisted of 500 ml of 1× DPBS (Dulbecco's phosphate-buffered saline, Life Technologies, 14190250), 5% (mass/volume) bovine serum albumin (Sigma Aldrich, A3311), 0.5% (mass/volume) Triton X-100 (Sigma Aldrich, X100-100ML), and 0.5% (mass/volume) TWEEN20 (Sigma Aldrich, P2287-100ML). Fixed cells were washed with IBS three times and permeabilized for 2 hours with IBS at room temperature. Cells were then stained with the following primary antibody for 1 hour at room temperature: RPE65 (anti-RPE65 monoclonal antibody [1:300, Abcam, ab13826), Ezrin (monoclonal anti-ezrin antibody, 1:100, Sigma Aldrich, E8897), or GT335 (anti-polyglutamylation modification monoclonal antibody, 1:1000, Adipogen, AG-20B-0020). […] RNA was quantified using an ND-1000 spectrophotometer (Nanodrop Technologies) and the manufacturers protocol. cDNA synthesis was performed using the Script cDNA Synthesis Kit (Bio-Rad, 1708891) and the manufacturer provided protocols. […] An HPI4 well had to be excluded due to extremely low RNA extraction from the well and an insufficient quantity of cDNA being amplified to measured. […] Data was analyzed using R software (R Development Core Team, 2011).

SMILES | baseline electrical response (TEP and TER) and its change to 1 mM potassium (K+) or 100 μM ATP (iRPE [1]) | CPI_IntegratedIntensityEdge.K (Intensity 10), Mean (iRPE [2]; week 2) | ML_MinIntensity.Mean (Intensity 1), Mean (iRPE [2]; week 2) | CPI_IntegratedIntensityEdge.K (Intensity 10), Mean (iRPE [2]; week 3) | ML_MinIntensity.Mean (Intensity 1), Mean (iRPE [2]; week 3) | CPI_IntegratedIntensityEdge.K (Intensity 10), Mean (iRPE [2]; week 4) | CPI_IntegratedIntensityEdge.K (Intensity 10), Mean (iRPE [2]; week 5) | ML_MinIntensity.Mean (Intensity 1), Mean (iRPE [2]; week 5) | CPI_IntegratedIntensityEdge.K (Intensity 10), Mean (iRPE [2]; week 6) | ML_MinIntensity.Mean (Intensity 1), Mean (iRPE [2]; week 6) | CPI_IntegratedIntensityEdge.K (Intensity 10), Mean (iRPE [2]; week 7) | ML_MinIntensity.Mean (Intensity 1), Mean (iRPE [2]; week 7) | image absorbance over time (iRPE [3]) | mRNA and protein expression of maturation markers (iRPE [4]) | mean number of neighbors each iRPE cell had (iRPE [2]; Healthy-1 and Healthy-2 iRPE, across all time points, p<0.001) | ML_MinIntensity.Mean (Intensity 1), Mean (iRPE [2]; week 4)
C[C@@]1(CO)[C@H](O)CC[C@@]2(C)[C@H]1CC[C@H]1C[C@@H]3C[C@@]12CC[C@]3(O)CO [Aphidicolin] | significantly greater | 5.87 | 144.67 | 6.07 | 204.31 | 5.3 | 5.59 | 183.77 | 4.76 | 185.15 | 4.53 | 180.84 | increasing image absorbance | Higher | – | –
N#CC(=C(O)c1ccc(Cl)cc1Cl)c1nc2ccccc2c(=O)[nH]1 [HPI4] | significantly lower | 5.11 | 141.81 | 6.45 | 179.97 | 6.45 | 7.21 | 133.78 | 8.06 | 126.02 | 8.06 | 110.26 | decreasing trend in absorbance | – | significantly lower | 104.78
